From US8389551B2, “Optical enantiomers of phenyramidol and process for chiral synthesis” (Fermenta Biotech (UK) Limited, priority 2006, dated 2013)
Marks after values point to notes of the source that are not given here.

Legend:
Type in all cases: in vivo
swiss albino mice = assay: Analgesic activity, acetic acid induced writhing method
Method: The objective of the study was to evaluate the analgesic activity of the tested formulations of the compounds of the present invention. The test was conducted in Swiss albino mice using acetic acid induced writhing method. A total of 78 pre-screened mice (showing writhing response within 10 minutes*) were divided into 6 groups of 13 animals (6 males+7 females) each. The animals showing no writhing response within 10 mins were excluded. Diclofenac and pentazocine were used as positive controls. The formulations were given orally to the different groups of animals and the number of writhes counted for a period of 15 minutes, after the onset of writhes. If the onset of writhes occurred 30 after 10 minutes the number of writhes was recorded as V. The time of onset of writhes was recorded for each animal.
The control group received 1% gum acacia. The Groups 2, 3, and 4 received the formulations viz: Phen 2; Phen 3 and Phen 4 respectively. Diclofenac and pentazocine were used as positive control and given to groups 5 and 6 respectively. Diclofenac, a potent analgesic & anti-inflammatory agent; and 5 pentazocine an opoid analgesic were selected for comparative evaluation of test formulations. Both these drugs were administered to different groups of animals at the dose of 2 mg/kg. The group 1 (Phen 1) served as—Ve Control group in the study. Phen 5 (Diclofenac—2 mg/kg) and Positive Control: Phen 6 (Pentazocine 2 mg/kg) served as positive controls.
Human daily dose of 2400 mg (800 mg×3 times) was extrapolated to mice for Phen3 and human daily dose of 1200 mg (400 mg×3 times) was extrapolated to mice for Phen2 and Phen 4. The numbers of writhes observed are given below in Table 4 for each formulation.
Further, the evaluation of analgesic activity was carried out using variable dosage forms with different groups. A total of 100 animals (50 males+50 females) were selected randomly and distributed into ten main groups with 10 animals per group (5 M+5 F). Human daily dose of 2400 mg (800 mg×3 times) was extrapolated to mice for Phen 3 (Phenyramidol Racemic (Hydrochloride) and human daily dose of 1200 mg (400 mg×3 times), 1800 mg (400 mg×4.5 times), 2000 mg (400 mg×5 times) & 2400 mg (400 mg×6 times) was extrapolated to mice for Phen2 and Phen4 groups.
The control group 1 received 1% gum acacia and served as negative control group. Groups 2, 3, 4 & 5 received the formulation Phen2. Groups 6, 7, 8 & 9 received the formulation Phen 4 (Isomer 2) & Group 10 received the formulation Phen 3 (Racemic).
Further, one more experiment was done with phenyramidol hydrochloride to evaluate the analgesic activity at lesser dosage levels using acetic acid induced method. A total of 50 animals (25 males+25 females) were selected and randomly distributed into five main groups with 10 animals per group (5 M+5 F). 5 Human daily dose of 600 mg (400×1.5 times) & 1200 mg (800 mg×1.5 times) was extrapolated to mice for Phen 3 (Racemic) and human daily dose of 600 mg (400 mg×1.5 times) was extrapolated to mice for (−) Phenyramidol Hydrochloride & (+) Phenyramidol Hydrochloride and the results are discussed in Table 6.

mice = assay: Central analgesic activity, tail flick analgesiometer
rats = assay: Anti-arthritic activity, thickness of joint of right paw after injection of formalin; settings: for Thickness of Joint (in cm) 0 hr: 0 hr (initial); for Thickness of Joint (in cm) 0 hr / Thickness of Joint (in cm) 2 hr: Phen 3 2400 mg, Phen 2 and Phen 4 1200 mg human daily dose extrapolated to rats, Diclofenac sodium 2 mg/Kg; for Thickness of Joint (in cm) 2 hr: 2 hr after formalin; for Thickness of Joint (in cm) 4 hr: 4 hr after formalin; for Thickness of Joint (in cm) 4 hr / Thickness of Joint (in cm) 8 hr / Thickness of Joint (in cm) 24 hr / Thickness of Joint (in cm) 48 hr / Thickness of Joint (in cm) 72 hr: doses as E38; for Thickness of Joint (in cm) 8 hr: 8 hr after formalin; for Thickness of Joint (in cm) 24 hr: 24 hr after formalin; for Thickness of Joint (in cm) 48 hr: 48 hr after formalin; for Thickness of Joint (in cm) 72 hr: 72 hr after formalin; for difference from normal control in thickness of the joint: at 2 hr, One Way ANOVA followed by Dunnett's Test; for Anti-arthritic activity (conclusion): formalin model, FIG. 18
Method: The anti-arthritic activity was assessed using following time points after the injection of formalin 2 hrs, 4 hrs, 8 hrs, 24 hrs, 48 hrs and 72 hrs. The control group (group 1) received 1% gum acacia. The Groups 2, 3, and 4 received the formulations viz: Phen 2, Phen 3 and Phen 4 respectively. Diclofenac was used as positive control and given to group 5. Human daily dose of 2400 mg (800 mg×3 times) was extrapolated to rats for 5 (racemate) Phen 3 and human daily dose of 1200 mg (400 mg×3 times) was extrapolated to rats for (isomer 1) Phen 2 and (isomer 2) Phen 4. Diclofenac sodium 2 mg/Kg was used as reference product.
Initial or 0 hr thickness of the joint of right paw of each animal was recorded. The thickness of the joint was measured using Vernier calipers at different time intervals after the injection of formalin. These efficacy variables were assessed at six time points 2 hrs, 4 hrs, 8 hrs, 24 hrs, 48 hrs and 72 hrs for each and every animal.

Wistar rats = assay: Anti-inflammatory activity, carrageenin induced paw edema (plethysmometer); settings: for % Increase in Paw volume 1 HR: 1 HR after carrageenan, oral, racemate 2400 mg, isomers 1200 mg human daily dose extrapolated to rats, Indomethacin 15 mg/kg, diclofenac 10 mg/kg; for % Increase in Paw volume 2 HR: 2 HR after carrageenan; for % Increase in Paw volume 2 HR / % Increase in Paw volume 3 HR / % Increase in Paw volume 5 HR: doses as E46; for % Increase in Paw volume 3 HR: 3 HR after carrageenan; for % Increase in Paw volume 5 HR: 5 HR after carrageenan
Method: Further, the investigations were carried out to determine the anti-inflammatory activities of the molecule of the present invention. Wistar rats weighing between 160-210 gm were divided into 6 groups of 10 animals each. Group I served as control (Placebo) and receive CMC and Group II & III received anti-inflammatory control (positive control) (Diclofenac & Indomethacin respectively). Group IV to VI were treated orally with test formulations. After 15 min. of drug administration, inflammation was induced by injecting 0.1 ml of freshly prepared 1% carrageenin (in normal saline) into the left hind paw of the rat. The paw volume of the […] was measured by measuring the displace fluid in other hand of plethysmometer.
Indomethacin (15 mg/kg and declofenac (10 mg/kg) was used as reference product. Percent increased in rat paw edema was measured and compare to normal control at each time intervals.
The antiinflammatory activity was assessed plethysmographically using following time points after the administration of carrageenan, 1 hr, 2 hrs, 3 hrs and 5 hrs.

[1] = Table 4, oral, writhes counted 15 minutes, Phen3 human daily dose 2400 mg, Phen2 and Phen 4 1200 mg extrapolated to mice, Diclofenac and Pentazocine 2 mg/kg
[2] = Table 5, dose 2400 mg (human daily dose extrapolated to mice), mean ± SD, n = 10
[3] = Table 6, dose 600 mg (human daily dose extrapolated to mice), mean ± SD, n = 10
[4] = experiment of Table 5 (variable doses)
[5] = experiment of Table 6, lesser dosage levels
[6] = 1 hr. after dose, human daily dose 2400 mg or 1200 mg extrapolated to mice, cut-off 10-12 seconds
[7] = 4 hr. after dose, human daily dose 2400 mg or 1200 mg extrapolated to mice, cut-off 10-12 seconds

SMILES	Average no. of writhes (swiss albino mice; [1])	Average no. of writhes (swiss albino mice; [2])	Average no. of writhes (swiss albino mice; [3])	analgesic activity by decrease in the number of writhes induced by acetic acid (swiss albino mice; experiment of Table 4)	analgesic activity by decrease in the number of writhes induced by acetic acid (swiss albino mice; [4])	analgesic activity by decrease in the number of writhes induced by acetic acid (swiss albino mice; [5])	Tail Flick Reaction Time (Sec.) 1 hr. (mice; [6])	Tail Flick Reaction Time (Sec.) 4 hr. (mice; [7])	Thickness of Joint (in cm) 0 hr (rats)	Thickness of Joint (in cm) 2 hr (rats)	Thickness of Joint (in cm) 4 hr (rats)	Thickness of Joint (in cm) 8 hr (rats)	Thickness of Joint (in cm) 24 hr (rats)	Thickness of Joint (in cm) 48 hr (rats)	Thickness of Joint (in cm) 72 hr (rats)	% Increase in Paw volume 1 HR (Wistar rats)	% Increase in Paw volume 2 HR (Wistar rats)	% Increase in Paw volume 3 HR (Wistar rats)	% Increase in Paw volume 5 HR (Wistar rats)	difference from normal control in thickness of the joint (rats)	also measured
OC(CNc1ccccn1)c1ccccc1 (racemic) [Phen 3, 2-(β-hydroxyphenethylamino) pyridine, reference compound]	3.54 ± 3.95*	4.20 ± 3.77*	5.90 ± 6.14*	significant analgesic activity	significant analgesic activity	significant analgesic activity	4.86 ± 3.023 s	5.055 ± 2.735 s	0.48 ± 0.04 cm	0.59 ± 0.03 cm	0.59 ± 0.04 cm	0.62 ± 0.06 cm	0.52 ± 0.05 cm	0.54 ± 0.05 cm	0.55 ± 0.05 cm	24.15 ± 7.27%	44.73 ± 6.56%	61.40 ± 18.21%	47.13 ± 19.14%	–	Average no. of writhes (swiss albino mice; Table 6, dose 1200 mg (human daily dose extrapolated to mice), mean ± SD, n = 10): 1.50 ± 2.59*; analgesic activity (tail flick latency compared to control) (mice; at 4 hr after dose administration): significant analgesic activity
Cl.O[C@@H](CNc1ccccn1)c1ccccc1 [(−) Phenyramidol Hydrochloride, (R)-Phenyramidol Hydrochloride Salt]	–	–	3.20 ± 4.16*	–	–	significant analgesic activity	–	–	–	–	–	–	–	–	–	–	–	–	–	–	analgesic activity (summary statement) (swiss albino mice; confirmed by an acetic acid induced writhing method): enhanced analgesic activity
O=C(O)Cc1ccccc1Nc1c(Cl)cccc1Cl [Diclofenac, reference compound]	4.08 ± 6.32*	–	–	–	–	–	3.41 ± 1.421 s	2.48 ± 0.654 s	0.49 ± 0.04 cm	0.56 ± 0.04 cm	0.56 ± 0.04 cm	0.62 ± 0.03 cm	0.54 ± 0.05 cm	0.53 ± 0.05 cm	0.51 ± 0.03 cm	15.77 ± 13.94%	33.39 ± 7.35 %	43.03 ± 15.41 %	30.44 ± 9.52%	significant decrease in the thickness of the joint	–
COc1ccc2c(c1)c(CC(=O)O)c(C)n2C(=O)c1ccc(Cl)cc1 [Indomethacin]	–	–	–	–	–	–	–	–	–	–	–	–	–	–	–	18.58 ± 11.38%	31.27 ± 4.75 %	41.42 ± 12.54 %	28.86 ± 8.22 %	–	–
CC(C)=CCN1CCC2(C)c3cc(O)ccc3CC1C2C (stereo not drawn) [Pentazocine]	10.62 ± 9.47*	–	–	–	–	–	–	–	–	–	–	–	–	–	–	–	–	–	–	–	Tail Flick Reaction Time (Sec.) 1 hr. (mice; mouse, in vivo): 3.0 ± 0.7055 s; Tail Flick Reaction Time (Sec.) 4 hr. (mice; mouse, in vivo): 3.0 ± 0.7055 s
O=C(O)C(=O)O.O[C@@H](CNc1ccccn1)c1ccccc1 [Phen 4, (R)-Phenyramidol Oxalate]	12.08 ± 4.21*	4.50 ± 5.19*	–	significant analgesic activity	significant analgesic activity	–	–	–	0.49 ± 0.04 cm	0.56 ± 0.05 cm	0.56 ± 0.05 cm	0.62 ± 0.03 cm	0.55 ± 0.05 cm	0.53 ± 0.04 cm	0.51 ± 0.03 cm	25.37 ± 10.44%	39.90 ± 6.12%	68.36 ± 22.20%	49.65 ± 19.03%	significant difference (p<0.05)	Average no. of writhes (swiss albino mice; Table 5, dose 1200 mg (human daily dose extrapolated to mice), mean ± SD, n = 10): 10.50 ± 6.65*; Average no. of writhes (swiss albino mice; Table 5, dose 1800 mg (human daily dose extrapolated to mice), mean ± SD, n = 10): 6.20 ± 5.39*; Average no. of writhes (swiss albino mice; Table 5, dose 2000 mg (human daily dose extrapolated to mice), mean ± SD, n = 10): 6.00 ± 6.41*; Tail Flick Reaction Time (Sec.) 1 hr. (mice; mouse, in vivo): 2.87 ± 1.071 s; Tail Flick Reaction Time (Sec.) 4 hr. (mice; mouse, in vivo): 3.18 ± 1.540 s; Anti-arthritic activity (conclusion) (rats): exhibits Anti-arthritic activity; Anti-arthritic activity (conclusion) (rats; listed as Phen4): significant anti-arthritic activity
